As a reminder, the IC50 is the concentration that gives 50% inhibition.

T1 sequence (P48736 whole entry, species assumed): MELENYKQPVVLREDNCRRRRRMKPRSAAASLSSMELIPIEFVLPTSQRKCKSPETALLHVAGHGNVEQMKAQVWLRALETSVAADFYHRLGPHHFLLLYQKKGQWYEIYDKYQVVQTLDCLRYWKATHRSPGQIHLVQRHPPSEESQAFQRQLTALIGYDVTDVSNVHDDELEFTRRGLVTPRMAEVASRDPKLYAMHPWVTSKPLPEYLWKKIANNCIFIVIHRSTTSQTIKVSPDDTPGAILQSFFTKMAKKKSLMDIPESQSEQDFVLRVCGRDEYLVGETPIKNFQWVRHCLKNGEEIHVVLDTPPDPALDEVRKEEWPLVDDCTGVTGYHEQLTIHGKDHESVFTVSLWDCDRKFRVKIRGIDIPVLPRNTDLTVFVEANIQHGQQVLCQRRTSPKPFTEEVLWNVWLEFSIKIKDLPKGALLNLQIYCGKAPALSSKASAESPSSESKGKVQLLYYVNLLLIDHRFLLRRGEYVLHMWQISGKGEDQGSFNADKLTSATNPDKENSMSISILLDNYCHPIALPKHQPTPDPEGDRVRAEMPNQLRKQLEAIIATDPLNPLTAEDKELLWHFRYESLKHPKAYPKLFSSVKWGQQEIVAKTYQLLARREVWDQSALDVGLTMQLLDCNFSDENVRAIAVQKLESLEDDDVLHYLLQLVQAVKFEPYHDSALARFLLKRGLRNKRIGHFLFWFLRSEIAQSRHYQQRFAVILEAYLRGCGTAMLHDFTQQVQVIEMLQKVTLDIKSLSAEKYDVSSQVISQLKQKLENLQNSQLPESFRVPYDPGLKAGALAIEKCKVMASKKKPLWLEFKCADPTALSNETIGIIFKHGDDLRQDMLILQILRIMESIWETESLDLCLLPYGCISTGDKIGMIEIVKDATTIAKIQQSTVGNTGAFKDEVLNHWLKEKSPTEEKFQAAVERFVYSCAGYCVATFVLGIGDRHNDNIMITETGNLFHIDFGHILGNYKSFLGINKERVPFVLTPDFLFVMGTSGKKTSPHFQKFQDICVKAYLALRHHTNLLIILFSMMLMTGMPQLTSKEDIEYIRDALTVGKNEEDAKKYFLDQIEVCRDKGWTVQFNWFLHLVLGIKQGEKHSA
T1 sequence (Q8WYR1 whole entry partner, species assumed): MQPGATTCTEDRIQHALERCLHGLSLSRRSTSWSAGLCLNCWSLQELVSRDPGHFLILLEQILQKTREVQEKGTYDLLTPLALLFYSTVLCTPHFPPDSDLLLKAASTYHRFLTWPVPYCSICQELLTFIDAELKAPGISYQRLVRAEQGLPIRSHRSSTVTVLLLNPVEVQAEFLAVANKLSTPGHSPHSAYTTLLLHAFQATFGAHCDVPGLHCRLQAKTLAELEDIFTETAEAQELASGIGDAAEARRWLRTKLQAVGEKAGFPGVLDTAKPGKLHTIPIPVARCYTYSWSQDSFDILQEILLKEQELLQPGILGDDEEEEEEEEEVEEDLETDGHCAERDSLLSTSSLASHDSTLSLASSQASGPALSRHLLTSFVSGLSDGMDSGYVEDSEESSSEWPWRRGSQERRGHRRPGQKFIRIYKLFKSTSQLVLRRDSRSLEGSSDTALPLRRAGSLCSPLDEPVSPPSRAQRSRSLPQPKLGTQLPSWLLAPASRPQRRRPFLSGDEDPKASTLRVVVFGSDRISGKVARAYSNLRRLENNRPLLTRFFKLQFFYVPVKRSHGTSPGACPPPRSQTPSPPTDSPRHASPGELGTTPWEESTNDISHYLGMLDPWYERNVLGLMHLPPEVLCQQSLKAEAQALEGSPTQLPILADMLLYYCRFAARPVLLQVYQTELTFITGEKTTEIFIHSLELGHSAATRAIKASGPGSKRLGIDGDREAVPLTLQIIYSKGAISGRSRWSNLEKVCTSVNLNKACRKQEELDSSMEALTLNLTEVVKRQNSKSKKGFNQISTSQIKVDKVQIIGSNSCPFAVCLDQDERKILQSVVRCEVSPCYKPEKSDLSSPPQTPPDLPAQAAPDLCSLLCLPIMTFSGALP

The assay concerns the target T1, PI3Kγ (p101/p110γ protein) (Homo sapiens, UniProt P48736).
T1 construct: HA; made in house; host or cells: Spodoptera frugiperda (Sf9) cells, baculovirus co-infection
The assay can be described thus: PI3Kγ In Vitro Kinase Assay. It counts as biochemical. To be noted: purified recombinant p101/p110γ with G protein β1/γ2 subunits; 20 μM ATP, 25 μM PIP2; 20 minutes at room temperature. In outline: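 Reactions ran 20 min at room temperature, pairing lipid micelles (25 μM PIP2, 300 μM PE, 0.02% Na-cholate, 10 mM MgCl2) with 20 μM ATP including [γ-32P]ATP. The enzyme was recombinant p101/p110γ (2.7 nM) with G protein β1/γ2 (57.7 nM). [32P]PIP3 product was stopped with H3PO4, filtered and scintillation counted.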
`CC(C)(C)c1cc(CN2C(=O)COc3ccc(C=C4SC(=S)NC4=O)cc32)cc(-c2ccccc2)c1` [Example 65, 4-(5-tert-Butyl-biphenyl-3-ylmethyl)-6-(4-oxo-2-thioxo-thiazolidin-5-ylidenemethyl)-4H-1,4-benzoxazin-3-one]: the half-maximal inhibitory concentration (IC50) turned out to be 95 nM.

As to `Cc1cc(CN2C(=O)COc3ccc(C=C4SC(=S)NC4=O)cc32)nn1C(C)(C)C` [Example 326, 4-(1-tert-Butyl-5-methyl-1H-pyrazol-3-ylmethyl)-6-(4-oxo-2-hioxo-thiazolidin-5-ylidenemethyl)-4H-benzo[1,4]oxazin-3-one], the half-inhibitory concentration (IC50) was 25 nM. Take `O=C1NC(=S)SC1=Cc1ccc2c(c1)N(Cc1ccc(Cl)cc1)C(=O)CO2` [Example 179, 4-(4-Chloro-benzyl)-6-(4-oxo-2-thioxo-thiazolidin-5-ylidenemethyl)-4H-1,4-benzoxazin-3-one]: the half-inhibitory concentration (IC50) was 7 nM. For `CC(=O)Oc1c(C)cc(CN2C(=O)COc3ccc(C=C4SC(=S)NC4=O)cc32)cc1C` [Example 126, Acetic acid 2,6-dimethyl-4-{3-[3-oxo-6-(4-oxo-2-thioxo-thiazolidin-5-ylidenemethyl)-2,3-dihydro-benzo[1,4]oxazin-4-yl]-methyl}-phenyl ester] the value was 10 nM; for `COc1ccc(CN2C(=O)COc3ccc(C=C4SC(=S)NC4=O)cc32)cc1C(F)(F)F` [Example 167, 4-(4-Methoxy-3-trifluoromethyl-benzyl)-6-(4-oxo-2-thioxo-thiazolidin-5-ylidenemethyl)-4H-1,4-benzoxazin-3-one], 10 nM; for `COC(=O)c1nc(CN2C(=O)COc3ccc(C=C4SC(=S)NC4=O)cc32)ncc1OC` [Example 231, 5-Methoxy-2-[3-oxo-6-(4-oxo-2-thioxo-thiazolidin-5-ylidenemethyl)-2,3-dihydro-1,4-benzoxazin-4-ylmethyl]-pyrimidine-4-carboxylic acid methyl ester], 50 nM. As to `CC(C)(C)c1cc(CN2C(=O)COc3ccc(C=C4SC(=S)NC4=O)cc32)cc(C(C)(C)C)n1` [Example 45, 4-(2,6-Di-tert-butyl-pyridin-4-ylmethyl)-6-(4-oxo-2-thioxo-thiazolidin-5-ylidenemethyl)-4H-1,4-benzoxazin-3-one], the IC50 is 336 nM. For `COc1ccc(CCCN2C(=O)COc3ccc(C=C4SC(=O)NC4=O)cc32)cc1` [Example 123, 5-{4-[3-(4-Methoxy-phenyl)-propyl]-3-oxo-3,4-dihydro-2H-benzo[1,4]oxazin-6-ylmethylene}-thiazolidine-2,4-dione], the concentration for half-maximal inhibition (IC50) was found to be 7 nM. To `CC(c1cc(C(C)(C)C)cc(C(C)(C)C)c1)N1C(=O)COc2ccc(C=C3SC(=S)NC3=O)cc21` (centres unmarked) [Example 62, 4-[1-(3,5-Di-tert-butyl-phenyl)-ethyl]-6-(4-oxo-2-thioxo-thiazolidin-5-ylidenemethyl)-4H-1,4-benzoxazin-3-one] belongs 850 nM; to `CC(C)n1cnc2cc(CN3C(=O)COc4ccc(C=C5SC(=S)NC5=O)cc43)ccc21` [Example 335, 4-(1-Isopropyl-1H-benzimidazol-5-ylmethyl)-6-(4-oxo-2-thioxo-thiazolidin-5-ylidenemethyl)-4H-1,4-benzoxazin-3-one], 34 nM.

Turning to `CS(=O)(=O)c1ccc(CN2C(=O)COc3ccc(C=C4SC(=S)NC4=O)cc32)cc1` [Example 192, 4-(4-Methanesulfonyl-benzyl)-6-(4-oxo-2-thioxo-thiazolidin-5-ylidenemethyl)-4H-1,4-benzoxazin-3-one], the IC50 worked out at 8 nM. `NC(=O)c1cccc(CN2C(=O)COc3ccc(C=C4SC(=S)NC4=O)cc32)c1` [Example 172, 3-[3-Oxo-6-(4-oxo-2-thioxo-thiazolidin-5-ylidenemethyl)-2,3-dihydro-1,4-benzoxazin-4-ylmethyl]-benzamide]: the half-inhibitory concentration (IC50) is 145 nM. For `CC(C)(O)c1cccc(CN2C(=O)COc3ccc(/C=C4\SC(=S)NC4=O)cc32)c1` [Example 282, 4-[3-(1-Hydroxy-1-methyl-ethyl)-benzyl]-6-[4-oxo-2-thioxo-thiazolidin-(5Z)-ylidenemethyl]-4H-benzo[1,4]oxazin-3-one; Compound with ethane-1,2-diamine] the value was 13 nM; for `C/C(=C1/SC(=S)NC1=O)c1ccc2c(c1)NC(=O)CO2` [Example 268, 6-{1-[4-Oxo-2-thioxo-thiazolidin-(5Z)-ylidene]-ethyl}-4H-benzo[1,4]oxazin-3-one], 4640 nM. For `C[C@@H]1Oc2ccc(C=C3SC(=S)NC3=O)cc2NC1=O` [Example 13, (S)-2-Methyl-6-(4-oxo-2-thioxo-thiazolidin-5-ylidenemethyl)-4H-1,4-benzoxazin-3-one] the value was 745 nM. To `O=C1NC(=S)SC1=Cc1ccc2c(c1)N(Cc1cccc(OCc3ccccc3)c1)C(=O)CO2` [Example 15, 4-(3-Benzyloxy-benzyl)-6-(4-oxo-2-thioxo-thiazolidin-5-ylidenemethyl)-4H-1,4-benzoxazin-3-one] belongs 13 nM; to `CN1CCN(Cc2ccc(CN3C(=O)COc4ccc(C=C5SC(=O)NC5=O)cc43)cc2)CC1` [Example 228, 5-{4-[4-(4-Methyl-piperazin-1-ylmethyl)-benzyl]-3-oxo-3,4-dihydro-2H-1,4-benzoxazin-6-ylmethylene}-thiazolidine-2,4-dione], 3 nM; to `O=C1COc2ccc(C=C3SC(=S)N(c4ccccc4)C3=O)cc2N1Cc1ccc(Cl)s1` [Example 316, 4-(5-Chloro-thiophen-2-ylmethyl)6-(4-oxo-3-phenyl-2-thioxo-thiazolidin-5-ylidenemethyl)-4H-benzo[1,4]oxazin-3-one], 3700 nM. On to `CC(C)(O)c1cc(CN2C(=O)COc3ccc(C=C4SC(=O)NC4=O)cc32)ccc1F` [Example 305, 5-{4-[4-Fluoro-3-(1-hydroxy-1-methyl-ethyl)-benzyl]-3-oxo-3,4-dihydro-2H-benzo[1,4]oxazin-6-ylmethylene}-thiazolidine-2,4-dione], for which the IC50 is 16 nM.

As to `CC(C)(C)c1cc(CN2C(=O)COc3c(F)cc(CC4SC(=S)NC4=O)cc32)cc(C(C)(C)O)c1` (centres unmarked) [Example 236, 4-[3-tert-Butyl-5(1-hydroxy-1-methyl-ethyl)-benzyl]-8-fluoro-6-(4-oxo-2-thioxo-thazolidin-5-ylmethyl)-4H-benzo[1,4]oxazin-3-one], the IC50 came out at 5 nM.

`O=C1NC(=S)SC1=Cc1ccc2c(c1)N(CC1CCCCC1)C(=O)CO2` [Example 143, 4-Cyclohexylmethyl-6-(4-oxo-2-thioxo-thiazolidin-5-ylidenemethyl)-4H-benzo[1,4]oxazin-3-one]: the IC50 is 35 nM. For `COc1cc(CN2C(=O)COc3ccc(C=C4SC(=S)NC4=O)cc32)cc(Cl)n1` [Example 205, 4-(2-Chloro-6-methoxy-pyridin-4-ylmethyl)-6-(4-oxo-2-thioxo-thiazolidin-5-ylidenemethyl)-4H-benzo[1,4]oxazin-3-one] the value was 32 nM. For `C/C(=C1/SC(=S)NC1=O)c1ccc2c(c1)N(Cc1ccccc1)C(=O)CO2` [Example 266, 4-Benzyl-6-{1-[4-oxo-2-thioxo-thiazolidin-(5Z)-ylidene]-ethyl}-4H-benzo[1,4]oxazin-3-one] the value was 1610 nM; for `CS(=O)(=O)c1cccc(CN2C(=O)COc3c(F)cc(C=C4SC(=S)NC4=O)cc32)c1` [Example 269, 8-Fluoro-4-(3-methanesulfonyl-benzyl)-6-(4-oxo-2-thioxo-thiazolidin-5-ylidenemethyl)-4H-benzo[1,4]oxazin-3-one], 14 nM; for `O=C1NC(=S)SC1=Cc1cc(F)c2c(c1)N(Cc1ccccc1)C(=O)CO2` [Example 46, 4-Benzyl-8-fluoro-6-(4-oxo-2-thioxo-thiazolidin-5-ylidenemethyl)-4H-1,4-benzoxazin-3-one], 8 nM. For `CC1CC(C)CN(CCCN2C(=O)COc3c(F)cc(C=C4SC(=S)NC4=O)cc32)C1` (centres unmarked) [Example 244, 4-[3-(3,5-Dimethyl-piperidin-1-yl)-propyl]-8-fluoro-6-(4-oxo-2-thioxo-thiazolidin-5-ylidenemethyl)-4H-benzo[1,4]oxazin-3-one] the value was 185 nM; for `CC(C)(C)c1cc(CN2C(=O)COc3c(F)cc(/C=C4\SC(=O)NC4=O)cc32)cc(C(C)(C)O)c1` [Example 276, 5-[1-{4-[3-tert-Butyl-5-(1-hydroxy-1-methyl-ethyl)-benzyl]-8-fluoro-3-oxo-3,4-dihydro-2H-benzo[1,4]oxazin-6-yl}-meth-(Z)-ylidene]-thiazolidine-2,4-dione], 7 nM.

Turning to `Cc1cc(C)cc(CN2C(=O)COc3ccc(C=C4SC(=S)NC4=O)cc32)c1` [Example 14, 4-(3,5-Dimethyl-benzyl)-6-(4-oxo-2-thioxo-thiazolidin-5-ylidenemethyl)-4H-1,4-benzoxazin-3-one], the IC50 was found to be 5 nM.

Regarding `CC(C)(C)c1cc(CO)cc(CN2C(=O)COc3ccc(C=C4SC(=S)NC4=O)cc32)c1` [Example 212, 4-(3-tert-Butyl-5-hydroxymethyl-benzyl)-6-(4-oxo-2-thioxo-thiazolidin-5-ylidenemethyl)-4H-1,4-benzoxazin-3-one], the IC50 is 22 nM. As for `COCCN(CCCN1C(=O)COc2c(F)cc(C=C3SC(=S)NC3=O)cc21)CCOC` [Example 313], the IC50 stood at 35 nM. To `O=C1NC(=O)C(=Cc2ccc3c(c2)N(Cc2ccoc2)C(=O)CO3)S1` [Example 338, 5-(4-Furan-3-ylmethyl-3-oxo-3,4-dihydro-2H-1,4-benzoxazin-6-ylmethylene)-thiazolidine-2,4-dione] belongs 12 nM.

In the case of “5-{4-[3-(4-Methoxy-phenyl)-propyl]-3-oxo-3,4-dihydro-2H-benzo[1,4]oxazin-6-ylmethylene}-thiazolidine-2,4-dione [Example 125]”, the IC50 was found to be 18 nM.

The values above are taken from patent publication US7205295B2, “Benzoxazin-3-ones and derivatives thereof as therapeutic agents” (Warner-Lambert Company LLC, priority 2002, dated 2007).
